# Laboratory results as given in DBAASP.
# Legend:
# Assay in all cases: ≥ marks a high value that may be exact or a test limit, other limits are often not marked, values filed in µg/mL are converted to µM
# Escherichia coli = test system: Escherichia coli
# [1] = test system: Staphylococcus aureus ATCC 29213
# [2] = test system: Escherichia coli ATCC 25922
# Staphylococcus aureus = test system: Staphylococcus aureus
# [3] = test system: Enterococcus faecalis ATCC 29212
# [4] = test system: Pseudomonas aeruginosa ATCC 27853
# [5] = test system: Staphylococcus aureus ATCC 25923
# [6] = test system: Candida albicans ATCC 90028
# Escherichia coli UB1005 = test system: Escherichia coli UB1005
# [7] = test system: Pseudomonas aeruginosa PAO1
# [8] = test system: Klebsiella pneumoniae ATCC 700603
Structure (SMILES),MIC (Escherichia coli) [µM],MIC [1] [µM],MIC [2] [µM],MIC (Staphylococcus aureus) [µM],further results
CC(C)C[C@H](NC(=O)[C@H](CCCCN)NC(=O)[C@H](CC(C)C)NC(=O)[C@H](CC(C)C)NC(=O)[C@H](CCCCN)NC(=O)[C@H](CCCCN)NC(=O)[C@@H]1CSSC[C@H](N)C(=O)N[C@@H](CCCCN)C(=O)N[C@@H](CCCCN)C(=O)N[C@@H](CC(C)C)C(=O)N[C@@H](CC(C)C)C(=O)N[C@@H](CCCCN)C(=O)N[C@@H](CC(C)C)C(=O)N1)C(=O)N[C@@H](C)C(=O)NCC(=O)O [CKKLLKLCKKLLKLAG],40,> 40,10,,
CC[C@H](C)[C@H](NC(=O)CN)C(=O)NCC(=O)N[C@@H](CO)C(=O)N[C@@H](CC(C)C)C(=O)N[C@@H](CC(C)C)C(=O)N[C@@H](C)C(=O)N[C@@H](CCCCN)C(=O)N[C@@H](C)C(=O)N[C@@H](C)C(=O)N[C@@H](CCCCN)C(=O)N[C@@H](CC(C)C)C(=O)NCC(=O)N[C@@H](C)C(=O)N[C@@H](CC(N)=O)C(=O)N[C@@H](CC(C)C)C(=O)N[C@@H](CC(C)C)C(N)=O [GIGSLLAKAAKLGANLL],25,,,12.5,
CC[C@H](C)[C@H](NC(=O)[C@H](CCCCN)NC(=O)[C@H](CO)NC(=O)[C@H](Cc1c[nH]c2ccccc12)NC(=O)[C@H](CC(C)C)NC(=O)CN)C(=O)N[C@@H](CCCCN)C(=O)N[C@@H](CCC(=O)O)C(=O)N[C@@H](C)C(=O)N[C@@H](C)C(=O)N[C@@H](CCCCN)C(=O)N[C@H](C(=O)N[C@@H](C)C(=O)NCC(=O)N[C@@H](CC(C)C)C(=O)N[C@@H](CCSC)C(=O)N[C@@H](C)C(=O)N[C@@H](CCSC)C(=O)NCC(=O)N[C@@H](Cc1ccccc1)C(=O)N[C@H](C(=O)N[C@@H](CC(N)=O)C(=O)N[C@@H](CC(=O)O)C(=O)N[C@@H](CCSC)C(=O)N[C@H](C(=O)O)C(C)C)C(C)C)[C@@H](C)O [GLWSKIKEAAKTAGLMAMGFVNDMV],,,5.6,,MIC [3]: 11 µM; MIC [4]: 22 µM; MIC [5]: 22 µM
CC[C@H](C)[C@H](NC(=O)[C@H](CCCCN)NC(=O)[C@H](CC(C)C)NC(=O)[C@H](C)NC(=O)[C@H](CCCCN)NC(=O)CNC(=O)[C@H](CC(C)C)NC(=O)[C@H](CC(C)C)NC(=O)[C@H](CO)NC(=O)CNC(=O)[C@H](Cc1ccccc1)NC(=O)CN)C(=O)NCC(=O)N[C@H](C(=O)N[C@@H](CC(N)=O)C(=O)N[C@@H](CC(C)C)C(=O)N[C@@H](CC(C)C)C(N)=O)[C@@H](C)O [GFGSLLGKALKIGTNLL],25,,,6,
CC[C@H](C)[C@H](NC(=O)[C@H](CCCCN)NC(=O)[C@H](CC(=O)O)NC(=O)[C@H](Cc1ccccc1)NC(=O)[C@H](CC(C)C)NC(=O)[C@@H](N)CCCN=C(N)N)C(=O)N[C@@H](CCCN=C(N)N)C(=O)N[C@@H](CCC(N)=O)C(=O)N[C@H](C(=O)N[C@H](C(=O)N[C@@H](CCCN=C(N)N)C(=O)N[C@@H](CCCCN)C(=O)O)[C@@H](C)CC)C(C)C [RLFDKIRQVIRK],,10,5,,MIC [4]: 10 µM; MIC [6]: 5 µM
CC[C@H](C)[C@H](NC(=O)[C@H](CCCN=C(N)N)NC(=O)[C@H](CCC(N)=O)NC(=O)[C@@H](NC(=O)[C@@H](NC(=O)[C@H](CCCN=C(N)N)NC(=O)[C@@H](N)CCCCN)[C@@H](C)CC)C(C)C)C(=O)N[C@@H](CCCCN)C(=O)N[C@@H](CC(=O)O)C(=O)N[C@@H](C)C(=O)N[C@@H](CC(C)C)C(=O)N[C@@H](CCCN=C(N)N)C(=O)O [KRIVQRIKDALR],,40,10,,MIC [4]: 20 µM; MIC [6]: 20 µM
CC(C)C[C@H](NC(=O)[C@H](Cc1ccc(O)cc1)NC(=O)[C@@H]1CCCN1C(=O)[C@@H]1CCCN1C(=O)[C@H](CCCCN)NC(=O)[C@H](CC(=O)O)NC(=O)[C@@H](N)C(C)C)C(=O)N1CCC[C@H]1C(=O)N[C@@H](CCCN=C(N)N)C(=O)N1CCC[C@H]1C(=O)N[C@@H](CCCN=C(N)N)C(=O)N1CCC[C@H]1C(=O)N1CCC[C@H]1C(=O)N[C@@H](CCCN=C(N)N)C(=O)N[C@@H](CCCN=C(N)N)C(=O)N[C@@H](Cc1ccccc1)C(=O)N[C@@H](Cc1ccc(O)cc1)C(=O)N[C@@H](CC(N)=O)C(=O)N[C@@H](CCCN=C(N)N)C(N)=O [VDKPPYLPRPRPPRRFYNR],,,,,MIC (Escherichia coli UB1005): 0.364 µM; MIC [5]: 6.6 µM; MIC [7]: 106 µM
NCC(=O)N[C@@H](CCCN=C(N)N)C(=O)N[C@@H](CCCN=C(N)N)C(=O)N1CCC[C@H]1C(=O)N[C@@H](CCCN=C(N)N)C(=O)N1CCC[C@H]1C(=O)N[C@@H](CCCN=C(N)N)C(=O)N1CCC[C@H]1C(=O)N[C@@H](CCCN=C(N)N)C(=O)N1CCC[C@H]1C(=O)N[C@@H](Cc1c[nH]c2ccccc12)C(=O)N[C@@H](Cc1c[nH]c2ccccc12)C(=O)N[C@@H](Cc1c[nH]c2ccccc12)C(=O)N[C@@H](Cc1c[nH]c2ccccc12)C(N)=O [GRRPRPRPRPWWWW],,40,20,,MIC [4]: 20 µM
CC[C@H](C)[C@H](NC(=O)[C@H](CCCN=C(N)N)NC(=O)[C@H](CCC(N)=O)NC(=O)[C@@H](NC(=O)[C@@H](NC(=O)[C@H](CCCN=C(N)N)NC(=O)[C@H](CCCCN)NC(=O)[C@@H](N)Cc1ccccc1)[C@@H](C)CC)C(C)C)C(=O)N[C@@H](CCCCN)C(=O)N[C@@H](CC(=O)O)C(=O)NCC(=O)N[C@@H](CC(C)C)C(=O)N[C@@H](CCCN=C(N)N)C(=O)O [FKRIVQRIKDGLR],,> 40,20,,
CC[C@H](C)[C@H](NC(=O)[C@H](Cc1c[nH]c2ccccc12)NC(=O)[C@H](CCCCN)NC(=O)[C@@H](NC(=O)[C@H](CC(C)C)NC(=O)[C@H](CCCCN)NC(=O)CNC(=O)[C@@H](NC(=O)[C@@H](NC(=O)[C@@H](N)CO)[C@@H](C)O)[C@@H](C)CC)C(C)C)C(=O)N[C@H](C(=O)N[C@@H](CCCCN)C(=O)N[C@H](C(=O)N[C@H](C(=O)N[C@@H](CC(N)=O)C(=O)N[C@@H](CCCCN)C(=O)N[C@@H](Cc1ccccc1)C(=O)N[C@H](C(=O)N[C@@H](CCCCN)C(=O)N[C@@H](CCCCN)C(=O)O)[C@@H](C)O)C(C)C)[C@@H](C)O)[C@@H](C)CC [STIGKLVKWIIKTVNKFTKK],2.4,,,4.8,
CC[C@H](C)[C@H](NC(=O)[C@@H](NC(=O)[C@@H]1CCCN1C(=O)[C@@H](NC(=O)[C@@H]1CCCN1C(=O)[C@H](CCCCN)NC(=O)[C@H](CCCCN)NC(=O)[C@H](CO)NC(=O)CN)C(C)C)[C@@H](C)CC)C(=O)N[C@@H](Cc1ccc(O)cc1)C(=O)N[C@H]1CSSC[C@@H](C(=O)N[C@@H](CCC(N)=O)C(=O)N[C@@H](CCCN=C(N)N)C(=O)N[C@@H](CCSC)C(=O)O)NC(=O)[C@H](CCCCN)NC(=O)[C@H](C)NC(=O)[C@H](CO)NC(=O)[C@H](CCCN=C(N)N)NC(=O)[C@H](CCCN=C(N)N)NC(=O)[C@H](CC(N)=O)NC1=O [GSKKPVPIIYCNRRSAKCQRM],,,26.3,,MIC [8]: 26.3 µM
CC[C@H](C)[C@H](N)C(=O)NCC(=O)N[C@@H](CCCCN)C(=O)N[C@@H](CC(C)C)C(=O)N[C@H](C(=O)N[C@@H](CCCCN)C(=O)N[C@@H](Cc1c[nH]c2ccccc12)C(=O)N[C@H](C(=O)N[C@H](C(=O)N[C@@H](CCCCN)C(=O)N[C@H](C(=O)N[C@H](C(=O)N[C@@H](CC(N)=O)C(=O)N[C@@H](CCCCN)C(=O)N[C@@H](Cc1ccccc1)C(=O)N[C@H](C(=O)N[C@@H](CCCCN)C(=O)N[C@@H](CCCCN)C(=O)O)[C@@H](C)O)C(C)C)[C@@H](C)O)[C@@H](C)CC)[C@@H](C)CC)C(C)C [IGKLVKWIIKTVNKFTKK],2.1,,,3.7,
CC(C)C[C@H](NC(=O)[C@H](Cc1ccc(O)cc1)NC(=O)[C@@H]1CCCN1C(=O)[C@@H]1CCCN1C(=O)[C@H](CCCCN)NC(=O)[C@@H]1CCCN1C(=O)[C@@H](N)C(C)C)C(=O)N1CCC[C@H]1C(=O)N[C@@H](CCCN=C(N)N)C(=O)N1CCC[C@H]1C(=O)N[C@@H](CCCN=C(N)N)C(=O)N1CCC[C@H]1C(=O)N1CCC[C@H]1C(=O)N[C@@H](CCCN=C(N)N)C(=O)N[C@@H](CCCN=C(N)N)C(=O)N[C@@H](Cc1ccccc1)C(=O)N[C@@H](Cc1ccc(O)cc1)C(=O)N[C@@H](CC(N)=O)C(=O)N[C@@H](Cc1cnc[nH]1)C(N)=O [VPKPPYLPRPRPPRRFYNH],,,,,MIC (Escherichia coli UB1005): 16.8 µM; MIC [5]: 3.35 µM; MIC [7]: 107 µM
CC(C)C[C@H](NC(=O)[C@H](CCCCN)NC(=O)[C@H](CC(C)C)NC(=O)[C@H](CC(C)C)NC(=O)[C@H](CCCCN)NC(=O)[C@H](CCCCN)NC(=O)[C@H](CCC(N)=O)NC(=O)[C@H](CC(C)C)NC(=O)[C@H](CCCCN)NC(=O)[C@H](CC(C)C)NC(=O)[C@H](CC(C)C)NC(=O)[C@H](CCCCN)NC(=O)[C@H](CCCCN)NC(=O)[C@@H](N)CC(C)C)C(=O)N[C@@H](C)C(=O)NCC(=O)O [LKKLLKLQKKLLKLAG],,> 40,2.5,,
CC[C@H](C)[C@H](NC(=O)[C@H](CCCCN)NC(=O)[C@H](CCCCN)NC(=O)CNC(=O)[C@@H](NC(=O)CNC(=O)[C@H](Cc1ccccc1)NC(=O)[C@H](CC(N)=O)NC(=O)CNC(=O)[C@H](CO)NC(=O)[C@H](CC(C)C)NC(=O)[C@@H](NC(=O)[C@@H](N)CO)[C@@H](C)CC)C(C)C)C(=O)N[C@H](C(=O)N[C@H]1CSSC[C@@H](C(=O)O)NC(=O)[C@H](CC(C)C)NC(=O)CNC(=O)[C@H](CO)NC(=O)[C@H](CC(C)C)NC(=O)CNC1=O)C(C)C [SILSGNFGVGKKIVCGLSGLC],25,,,> 100,
